Source: ChEMBL document CHEMBL1153383, “Novel 2- and 4-substituted 1H-imidazo[4,5-c]quinolin-4-amine derivatives as allosteric modulators of the A3 adenosine receptor” (J Med Chem, 2009)

Key:
[1] = target: T1, Adenosine receptor A1 (Homo sapiens) (UniProt P30542); experiment: Displacement of [3H]CCPA from human recombinant adenosine A1 receptor expressed in CHO cells at 10 uM; type: cell-based
T1 sequence (whole entry): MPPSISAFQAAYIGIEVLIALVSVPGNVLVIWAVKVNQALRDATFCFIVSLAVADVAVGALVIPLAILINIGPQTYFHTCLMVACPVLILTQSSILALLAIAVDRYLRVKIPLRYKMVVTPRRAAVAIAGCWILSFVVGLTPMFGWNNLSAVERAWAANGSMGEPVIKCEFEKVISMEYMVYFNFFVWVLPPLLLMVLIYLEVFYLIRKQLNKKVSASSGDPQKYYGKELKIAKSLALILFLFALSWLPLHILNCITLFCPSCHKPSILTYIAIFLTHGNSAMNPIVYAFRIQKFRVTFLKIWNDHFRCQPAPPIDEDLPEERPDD

[2] = target: Adenosine receptor A2a (Homo sapiens) (UniProt P29274); experiment: Displacement of [3H]CGS21680 from human recombinant adenosine A2A receptor expressed in HEK293 cells at 10 uM; type: cell-based
[3] = target: T2, Adenosine receptor A3 (Homo sapiens) (UniProt P0DMS8); experiment: Displacement of [125I]I-AB-MECA from human recombinant adenosine A3 receptor expressed in CHO cells at 10 uM; type: cell-based
T2 sequence (whole entry): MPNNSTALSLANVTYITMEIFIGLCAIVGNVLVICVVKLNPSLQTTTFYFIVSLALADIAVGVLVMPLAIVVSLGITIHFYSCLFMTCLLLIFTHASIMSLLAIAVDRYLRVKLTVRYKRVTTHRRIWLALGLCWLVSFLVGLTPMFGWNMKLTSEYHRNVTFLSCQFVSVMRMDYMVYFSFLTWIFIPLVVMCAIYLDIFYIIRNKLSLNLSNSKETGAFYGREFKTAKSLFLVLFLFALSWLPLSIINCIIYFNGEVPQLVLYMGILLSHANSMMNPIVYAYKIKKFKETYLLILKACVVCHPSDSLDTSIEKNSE

[4] = target: T2, Adenosine receptor A3 (Homo sapiens); experiment: Decrease in dissociation of [125I]I-AB-MECA from human recombinant adenosine A3 receptor expressed in CHO cells at 10 uM after 60 mins relative to control; type: cell-based; set-up: scale not given: the % may be the effect or the level left
[5] = target: T2, Adenosine receptor A3 (Homo sapiens); experiment: Increase in efficacy of stimulation of [35S]GTPgammaS binding to human adenosine A3 receptor expressed in CHO cells at 10 uM by liquid scintillation counting relative to C1-IB-MECA; type: functional, cell-based

Chain of Adenosine receptor A2a (Homo sapiens) (P29274 whole entry): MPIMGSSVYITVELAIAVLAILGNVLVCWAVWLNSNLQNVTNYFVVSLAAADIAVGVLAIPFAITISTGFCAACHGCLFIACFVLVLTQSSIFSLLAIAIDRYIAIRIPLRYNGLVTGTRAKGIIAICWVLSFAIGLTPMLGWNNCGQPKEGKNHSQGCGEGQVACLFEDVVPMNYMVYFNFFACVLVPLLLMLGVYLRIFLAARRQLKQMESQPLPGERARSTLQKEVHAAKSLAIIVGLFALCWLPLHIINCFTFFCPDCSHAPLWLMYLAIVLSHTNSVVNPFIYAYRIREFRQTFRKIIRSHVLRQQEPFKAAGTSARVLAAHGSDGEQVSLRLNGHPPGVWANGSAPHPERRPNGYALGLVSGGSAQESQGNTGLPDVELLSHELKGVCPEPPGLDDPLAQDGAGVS

Row | Activity [1] | Activity [2] | Activity [3] | Activity [4] | Activity [5] | Structure (SMILES)
1 | 17.8% | -3.1% | 46.3% | 93% | – | Clc1ccc(Nc2nc3ccccc3c3[nH]c(C4CCN(Cc5ccccc5)CC4)nc23)cc1Cl
2 | 37% | -11.2% | – | – | – | Clc1ccc(Nc2nc3ccccc3c3nc(C4CCCCC4)[nH]c23)cc1Cl
3 | -4.2% | -2.2% | – | – | – | Clc1ccc(Nc2nc3ccccc3c3[nH]c(C4CCCCCC4)nc23)cc1Cl
4 | 20.2% | 8.8% | 29.8% | 91% | – | O=C(c1ccccc1)N1CCC(c2nc3c(Nc4ccc(Cl)c(Cl)c4)nc4ccccc4c3[nH]2)CC1
5 | 77.9% | 5.8% | 61.2% | 187% | – | Clc1ccc(Nc2nc3ccccc3c3[nH]c([C@H]4C[C@H]5CC[C@@H]4C5)nc23)cc1Cl
6 | 12.4% | 43.4% | 35.3% | 92% | – | O=C(c1ccccc1)N1CCC(c2nc3c(Nc4ccccc4)nc4ccccc4c3[nH]2)CC1
7 | 10.9% | 7% | 52.8% | 101% | – | Clc1ccc(Nc2nc3ccccc3c3[nH]c(C4CCNCC4)nc23)cc1Cl
8 | 44.8% | 39.4% | 50.5% | 168% | – | Clc1ccc(Nc2nc3ccccc3c3[nH]c([C@H]4C[C@H]5CC[C@H]4C5)nc23)cc1Cl
9 | 53.3% | 42.8% | 79.2% | 194% | 200% | Clc1cccc(Nc2nc3ccccc3c3[nH]c(C4CCCCC4)nc23)c1
10 | 21.4% | 56.8% | 5.6% | 102% | – | O=C1c2ccccc2C(=O)N1[C@H]1CC[C@@H](c2nc3c(Nc4ccc(Cl)c(Cl)c4)nc4ccccc4c3[nH]2)CC1
11 | -5.2% | – | – | – | – | Clc1ccc(Nc2nc3ccccc3c3[nH]c(C4CCC4)nc23)cc1Cl
12 | 48% | 67.2% | 43.9% | 174% | 187% | Clc1ccc(Nc2nc3ccccc3c3[nH]c(C4CCCCC4)nc23)c(Cl)c1
13 | 31.7% | 15.8% | 4.2% | 107% | – | N[C@H]1CC[C@@H](c2nc3c(Nc4ccc(Cl)c(Cl)c4)nc4ccccc4c3[nH]2)CC1
14 | 37.2% | -11.9% | 69.6% | 115% | – | Clc1ccc(Nc2nc3ccccc3c3[nH]c(C4CCOCC4)nc23)cc1Cl

Continued, compound first:

Row | Structure (SMILES) | Activity [1] | Activity [2] | Activity [3] | Activity [4] | Activity [5]
15 | COc1ccc(Nc2nc3ccccc3c3[nH]c(C4CCCCC4)nc23)cc1OC | 75.6% | 93.8% | 98.4% | 173% | 182%
16 | Clc1ccc(Nc2nc3ccccc3c3[nH]c(C45CC6CC(CC(C6)C4)C5)nc23)cc1Cl | 13.8% | -4.4% | 17.2% | 196% | –
17 | Fc1ccc(Nc2nc3ccccc3c3[nH]c(C4CCCCC4)nc23)cc1F | 14.6% | 26.5% | 68.8% | 187% | 197%
18 | N#Cc1ccc(Nc2nc3ccccc3c3nc(C4CCCCC4)[nH]c23)cc1C#N | 33.1% | 37.2% | 42.2% | 129% | 138%
19 | Clc1cc(Cl)cc(Nc2nc3ccccc3c3[nH]c(C4CCCCC4)nc23)c1 | 16.7% | -11.4% | 32.7% | 184% | 209%
20 | c1cncc(Nc2nc3ccccc3c3[nH]c(C4CCCCC4)nc23)c1 | 73.1% | 78.1% | 64.8% | 114% | 119%
21 | FC(F)(F)c1cc(Nc2nc3ccccc3c3nc(C4CCCCC4)[nH]c23)cc(C(F)(F)F)c1 | 7.2% | 15.6% | 21.8% | 137% | 143%
22 | Clc1ccc(Nc2nc3ccccc3c3[nH]c(C45CC6CC(CC4C6)C5)nc23)cc1Cl | 14.5% | -17.3% | 3.3% | 139% | –
23 | Fc1cc(F)cc(Nc2nc3ccccc3c3[nH]c(C4CCCCC4)nc23)c1 | 36.6% | 17.2% | 70.1% | 188% | 171%
24 | Clc1ccc(Nc2nc3ccccc3c3[nH]c(C4CCCC4)nc23)cc1Cl | – | 0% | – | – | –
25 | c1ccc2c(c1)nc(Nc1ccc3c(c1)OCO3)c1nc(C3CCCCC3)[nH]c12 | 65.4% | 49% | 83.9% | 185% | 166%
